Measurements published in US20110166121A1 (LG LIFE SCIENCES LTD., priority 2008, published 2011).
pIC50, pKi: −log10 of the molar value.

How the values were obtained:
Human P2Y12 receptor = target: T1, Human P2Y12 receptor (Homo sapiens, UniProt Q9H244); test: Human P2Y12 receptor cell membrane binding assay with [3H] 2-Mes-ADP; details: 1 nM [3H] 2-Mes-ADP, membranes of HEK cells expressing P2Y12 receptor; read-out: Binding activity (IC50)
T1 construct: expressed in transfected cells; host or cells: HEK cells
Procedure, shortened: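 Membranes from HEK cells expressing human P2Y12 were incubated with compound and 1 nM [3H]2-MeS-ADP for 1 h at room temperature. Bound radioactivity was collected by GF/B filtration.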

[1] = tested on: Human platelet aggregation caused by ADP; test: Inhibition of ADP-induced platelet aggregation (Mimic-human PRP); assay type: cell-based; details: 20 μM ADP, human platelet concentrate diluted with PPP, absorption at 595 nm
Procedure, shortened: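 Human PRP diluted with PPP to 3–4×10^8 platelets/mL was preincubated 20 min at room temperature with compound (0.01–30 μM, DMSO), then stimulated with 20 μM ADP. Aggregation read as A595 increase at 3 min versus 0 and 20 μM ADP controls; Ki from sigmoidal non-linear regression.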

T1 sequence (Q9H244 whole entry): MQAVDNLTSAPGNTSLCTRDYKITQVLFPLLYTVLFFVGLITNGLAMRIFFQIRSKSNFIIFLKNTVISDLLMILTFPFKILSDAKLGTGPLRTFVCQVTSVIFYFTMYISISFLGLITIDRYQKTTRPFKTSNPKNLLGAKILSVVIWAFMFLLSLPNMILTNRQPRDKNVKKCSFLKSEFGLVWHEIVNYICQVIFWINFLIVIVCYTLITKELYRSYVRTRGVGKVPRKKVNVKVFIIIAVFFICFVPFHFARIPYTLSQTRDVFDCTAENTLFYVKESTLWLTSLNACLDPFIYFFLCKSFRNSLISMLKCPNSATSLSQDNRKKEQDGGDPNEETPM

Row | SMILES | pIC50 (Human P2Y12 receptor) | pKi [1]
1 | CCCc1cc2c(N3CCn4c(nnc4C(F)(F)F)C3)nc(OCCC(=O)OCOC(=O)C(C)(C)C)nc2s1 [Example 3-13, 2,2-Dimethyl-propionic Acid 3-[6-propyl-4-(3-trifluoromethyl-5,6-dihydro-8H-[1,2,4]triazolo[4,3-a]pyrazin-7-yl)-thieno[2,3-d]pyrimidin-2-yloxy]-propionyloxymethyl ester] | 6.39 | 6.37
2 | CCCc1cc2c(N3CCn4c(nnc4C(F)(F)F)C3)nc(OCCC(OC)OC)nc2s1 [Example 3-14, 7-[2-(3,3-Dimethoxy-propoxy)-6-propyl-thieno[2,3-d]pyrimidin-4-yl]-3-trifluoromethyl-5,6,7,8-tetrahydro-[1,2,4]triazolo[4,3-a]pyrazine] | 6.62 | 5.96
3 | CCCc1cc2c(N3CCn4c(nnc4C(F)(F)F)C3)nc(OC3CCCC3)nc2s1 [Example 3-15, 7-(2-Cyclopentyloxy-6-propyl-thieno[2,3-d]pyrimidin-4-yl)-3-trifluoromethyl-5,6,7,8-tetrahydro-[1,2,4]triazolo[4,3-a]pyrazine] | 7.28 | 6.52
4 | CCCc1cc2c(N3CCn4c(nnc4C(F)(F)F)C3)nc(OCc3ccccc3)nc2s1 [Example 3-16, 7-(2-Benzyloxy-6-propyl-thieno[2,3-d]pyrimidin-4-yl)-3-trifluoromethyl-5,6,7,8-tetrahydro-[1,2,4]triazolo[4,3-a]pyrazine] | 7.41 | 4.56
5 | CCCCOc1nc(N2CCn3c(nnc3C(F)(F)F)C2)c2cc(CCC)sc2n1 [Example 3-17, 7-(2-Butoxy-6-propyl-thieno[2,3-d]pyrimidin-4-yl)-3-trifluoromethyl-5,6,7,8-tetrahydro-[1,2,4]triazolo[4,3-a]pyrazine] | 6.96 | 5.49
6 | CCCc1cc2c(N3CCn4c(nnc4C(F)(F)F)C3)nc(OCc3nc(CC(=O)OCC)co3)nc2s1 [Example 3-18, {2-[6-Propyl-4-(3-trifluoromethyl-5,6-dihydro-8H-[1,2,4]triazolo[4,3-a]pyrazin-7-yl)-thieno[2,3-d]pyrimidin-2-yloxymethyl]-oxazol-4-yl}-acetic acid ethyl ester] | 6.40 | 5.37
7 | CCCc1cc2c(N3CCn4c(nnc4C(F)(F)F)C3)nc(OCc3nc(CC(=O)O)co3)nc2s1 [Example 3-19, {2-[6-Propyl-4-(3-trifluoromethyl-5,6-dihydro-8H-[1,2,4]triazolo[4,3-a]pyrazin-7-yl)-thieno[2,3-d]pyrimidin-2-yloxymethyl]-oxazol-4-yl}-acetic acid] | 6.77 | < 5.40
8 | CCCc1cc2c(N3CCn4c(nnc4C(F)(F)F)C3)nc(OCc3cocn3)nc2s1 [Example 3-20, 7-[2-(Oxazol-4-ylmethoxy)-6-propyl-thieno[2,3-d]pyrimidin-4-yl]-3-trifluoromethyl-5,6,7,8-tetrahydro-[1,2,4]triazolo[4,3-a]pyrazine] | 7.08 | 6.08
9 | CCCc1cc2c(N3CCn4c(nnc4C(F)(F)F)C3)nc(OCCc3cc(F)cc(F)c3F)nc2s1 [Example 3-21, 7-{6-Propyl-2-[2-(2,3,5-trifluoro-phenyl)-ethoxy]-thieno[2,3-d]pyrimidin-4-yl}-3-trifluoromethyl-5,6,7,8-tetrahydro-[1,2,4]triazolo[4,3-a]pyrazine] | 6.96 | 6.41
10 | CCCc1cc2c(N3CCn4c(nnc4C(F)(F)F)C3)nc(OCc3ccccn3)nc2s1 [Example 3-23, 7-[6-Propyl-2-(pyridin-2-ylmethoxy)-thieno[2,3-d]pyrimidin-4-yl]-3-trifluoromethyl-5,6,7,8-tetrahydro-[1,2,4]triazolo[4,3-a]pyrazine] | 6.43 | < 5.40
11 | CCCc1cc2c(N3CCn4c(nnc4C(F)(F)F)C3)nc(OCc3cccnc3)nc2s1 [Example 3-24, 7-[6-Propyl-2-(pyridin-3-ylmethoxy)-thieno[2,3-d]pyrimidin-4-yl]-3-trifluoromethyl-5,6,7,8-tetrahydro-[1,2,4]triazolo[4,3-a]pyrazine] | 6.80 | 5.83
12 | CCCc1cc2c(N3CCn4c(nnc4C(F)(F)F)C3)nc(OCc3ccncc3)nc2s1 [Example 3-25, 7-[6-Propyl-2-(pyridin-4-ylmethoxy)-thieno[2,3-d]pyrimidin-4-yl]-3-trifluoromethyl-5,6,7,8-tetrahydro-[1,2,4]triazolo[4,3-a]pyrazine] | 6.77 | 6.03
13 | CCCc1cc2c(N3CCn4c(nnc4C(F)(F)F)C3)nc(OC3CNC3)nc2s1 [Example 3-26, 7-[2-(Azetidin-3-yloxy)-6-propyl-thieno[2,3-d]pyrimidin-4-yl]-3-trifluoromethyl-5,6,7,8-tetrahydro-[1,2,4]triazolo[4,3-a]pyrazine] | 6.83 | 7.60
14 | CCCc1cc2c(N3CCn4c(nnc4C(F)(F)F)C3)nc(O)nc2s1 [Example 3-27, 6-Propyl-4-(3-trifluoromethyl-5,6-dihydro-8H-[1,2,4]triazolo[4,3-a]pyrazin-7-yl)-thieno[2,3-d]pyrimidin-2-ol] | 5.27 | 5.06
15 | CCCc1cc2c(N3CCn4c(nnc4C(F)(F)F)C3)nc(Oc3ccccc3)nc2s1 [Example 3-28, 7-(2-Phenoxy-6-propyl-thieno[2,3-d]pyrimidin-4-yl)-3-trifluoromethyl-5,6,7,8-tetrahydro-[1,2,4]triazolo[4,3-a]pyrazine] | 6.75 | 5.01
16 | CCCc1cc2c(N3CCn4c(nnc4C(F)(F)F)C3)nc(Oc3cccnc3)nc2s1 [Example 3-29, 7-[6-Propyl-2-(pyridin-3-yloxy)-thieno[2,3-d]pyrimidin-4-yl]-3-trifluoromethyl-5,6,7,8-tetrahydro-[1,2,4]triazolo[4,3-a]pyrazine] | 6.66 | 6.82
17 | CCCc1cc2c(N3CCn4c(nnc4C(F)(F)F)C3)nc(Oc3cccc(C(=O)OC)c3)nc2s1 [Example 3-30, 3-[6-Propyl-4-(3-trifluoromethyl-5,6-dihydro-8H-[1,2,4]triazolo[4,3-a]pyrazin-7-yl)-thieno[2,3-d]pyrimidin-2-yloxy]-benzoic acid methyl ester] | 6.55 | < 5.40
18 | CCCc1cc2c(N3CCn4c(nnc4C(F)(F)F)C3)nc(Oc3cccc(C(=O)O)c3)nc2s1 [Example 3-31, 3-[6-Propyl-4-(3-trifluoromethyl-5,6-dihydro-8H-[1,2,4]triazolo[4,3-a]pyrazin-7-yl)-thieno[2,3-d]pyrimidin-2-yloxy]-benzoic acid] | 6.71 | 5.70
19 | CCCc1cc2c(N3CCn4c(nnc4C(F)(F)F)C3)nc(Oc3ccccc3C(=O)OC)nc2s1 [Example 3-32, 2-[6-Propyl-4-(3-trifluoromethyl-5,6-dihydro-8H-[1,2,4]triazolo[4,3-a]pyrazin-7-yl)-thieno[2,3-d]pyrimidin-2-yloxy]-benzoic acid methyl ester] | 6.19 | < 5.40
20 | CCCc1cc2c(N3CCn4c(nnc4C(F)(F)F)C3)nc(Oc3ccccc3C(=O)O)nc2s1 [Example 3-33, 2-[6-Propyl-4-(3-trifluoromethyl-5,6-dihydro-8H-[1,2,4]triazolo[4,3-a]pyrazin-7-yl)-thieno[2,3-d]pyrimidin-2-yloxy]-benzoic acid] | 5.65 | < 5.40
